Results taken from patent US20220257597A1, “Methods of Administering Elagolix” (AbbVie Inc., priority 2021, published 2022).
Residue numbers refer to the chain shown, from its start. Entries after “also recorded” stand apart in the source; their conditions may differ.

Columns and labels:
[1] = biological target: T1, OATP1B1 transporter protein (Homo sapiens, UniProt Q9Y6L6, V174A); experiment: Pharmacogenomics: elagolix plasma concentrations by SLCO1B1 521 genotype; type: in vivo; details: women with two reduced function alleles
T1 construct: Hepatic uptake of elagolix involves the OATP1B1 transporter protein; from tissue; host or cells: liver of patients (in vivo)
T1 sequence (Q9Y6L6 1-691 V174A): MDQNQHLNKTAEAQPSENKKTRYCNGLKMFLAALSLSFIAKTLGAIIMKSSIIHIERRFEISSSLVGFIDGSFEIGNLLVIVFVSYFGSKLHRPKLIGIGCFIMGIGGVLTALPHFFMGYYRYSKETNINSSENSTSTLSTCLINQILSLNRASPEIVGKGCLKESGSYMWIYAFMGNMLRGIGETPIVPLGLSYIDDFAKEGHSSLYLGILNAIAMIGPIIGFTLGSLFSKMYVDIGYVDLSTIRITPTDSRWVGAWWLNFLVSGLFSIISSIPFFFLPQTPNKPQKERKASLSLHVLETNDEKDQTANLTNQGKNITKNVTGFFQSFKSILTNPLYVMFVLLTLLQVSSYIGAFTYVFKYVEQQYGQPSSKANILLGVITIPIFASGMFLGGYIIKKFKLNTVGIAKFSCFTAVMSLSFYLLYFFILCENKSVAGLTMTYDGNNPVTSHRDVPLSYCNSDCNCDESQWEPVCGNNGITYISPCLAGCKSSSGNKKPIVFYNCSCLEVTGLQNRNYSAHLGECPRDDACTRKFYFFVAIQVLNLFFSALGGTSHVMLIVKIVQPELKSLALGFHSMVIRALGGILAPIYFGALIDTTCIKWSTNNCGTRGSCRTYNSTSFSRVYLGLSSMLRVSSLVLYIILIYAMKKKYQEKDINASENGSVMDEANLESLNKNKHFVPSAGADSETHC
Text: Hepatic uptake of elagolix involves the OATP1B1 transporter protein. Higher plasma concentrations of elagolix have been observed in patients who have two reduced function alleles of the gene that encodes OATP1B1 (SLCO1B1 521T>C) (these patients are likely to have reduced hepatic uptake of elagolix; and thus, higher plasma elagolix concentrations). The frequency of this SLCO1B1 521 C/C genotype is generally less than 5% in most racial/ethnic groups. Women with this genotype are expected to have approximately 2-fold higher elagolix mean concentrations compared to women with normal transporter function (i.e., SLCO1B1 521T/T genotype). Adverse effects of elagolix have not been fully evaluated in subjects who have two reduced function alleles of the gene that encodes OATP1B1 (SLCO1B1 521T>C).

[2] = tested on: CYP3A; experiment: Substrate of / metabolism by CYP3A; type: in vitro ADME
[3] = biological target: P-gp (Homo sapiens, UniProt P08183); experiment: Substrate of P-gp; type: in vitro ADME
[4] = tested on: CYP3A4; experiment: In vitro studies: CYP3A induction; type: in vitro ADME
[5] = Embryofetal development study in the rat; type: in vivo
Description: Embryofetal development studies were conducted in the rat and rabbit. Elagolix was administered by oral gavage to pregnant rats (25 animals/dose) at doses of 0, 300, 600 and 1200 mg/kg/day and to rabbits (20 animals/dose) at doses of 0, 100, 150, and 200 mg/kg/day, during the period of organogenesis (gestation day 6-17 in the rat and gestation day 7-20 in the rabbit).

[6] = biological target: CYP2C19 (Homo sapiens, UniProt P33261); experiment: In vitro studies: CYP2C19 inhibition; type: in vitro ADME
[7] = biological target: T2, OATP1B1 (Homo sapiens, UniProt Q9Y6L6); experiment: Substrate of OATP1B1; type: in vitro ADME
T2 sequence (Q9Y6L6 1-691): T1 sequence (Q9Y6L6 1-691 V174A) with A174V

[8] = Drug-drug interaction study: effect of multiple doses of elagolix sodium on pharmacokinetics of bupropion (CYP2B6 substrate) and OH-bupropion
Description: Subjects: Twenty four (24) adult premenopausal women in generally good health participated in this study.
Elagolix 300 mg BID (as 300 mg immediate release tablets) was administered in the morning and evening on days 1 through 14 in period 2. […] No food was consumed for 2 hours prior to the evening doses of elagolix continuing through 2 hours after. The doses of elagolix were separated by approximately 12 hours.
Individual PK parameters (peak concentration [Cmax] and area under the concentration-time curve [AUC]) were estimated using noncompartmental methods.
Central value ratios (90% confidence intervals) for Cmax, AUC, and metabolite to parent ratios (MPRs) (day 11, period 2 vs. day 1, period 1) were calculated to assess the DDIs. Safety was evaluated through assessment of adverse events, vital signs, electrocardiogram, and clinical laboratory tests.
Adverse events (AEs) were monitored throughout the DDI study. Additional safety evaluations included monitoring of physical examinations, vital signs, electrocardiogram variables, and clinical laboratory values were assessed

[9] = Elagolix apparent terminal phase elimination half-life; details: human, in vivo; read-out: apparent terminal phase elimination half-life (t1/2)
[10] = Pre- and postnatal development study in rats; type: in vivo, rat; details: for maternal plasma concentration relative to maximal elagolix concentration (Cmax) in humans at the MRHD: lactation day 21
Description: In a pre- and postnatal development study in rats, elagolix was given in the diet to achieve doses of 0, 100 and 300 mg/kg/day (25 per dose group) from gestation day 6 to lactation day 20. […] Pup survival was decreased from birth to postnatal day 4. […] Smaller body size and effect on startle response were associated with lower pup weights at 300 mg/kg/day. Post-weaning growth, development and behavioral endpoints were unaffected.

CYP2C19, sequence (P33261 whole entry): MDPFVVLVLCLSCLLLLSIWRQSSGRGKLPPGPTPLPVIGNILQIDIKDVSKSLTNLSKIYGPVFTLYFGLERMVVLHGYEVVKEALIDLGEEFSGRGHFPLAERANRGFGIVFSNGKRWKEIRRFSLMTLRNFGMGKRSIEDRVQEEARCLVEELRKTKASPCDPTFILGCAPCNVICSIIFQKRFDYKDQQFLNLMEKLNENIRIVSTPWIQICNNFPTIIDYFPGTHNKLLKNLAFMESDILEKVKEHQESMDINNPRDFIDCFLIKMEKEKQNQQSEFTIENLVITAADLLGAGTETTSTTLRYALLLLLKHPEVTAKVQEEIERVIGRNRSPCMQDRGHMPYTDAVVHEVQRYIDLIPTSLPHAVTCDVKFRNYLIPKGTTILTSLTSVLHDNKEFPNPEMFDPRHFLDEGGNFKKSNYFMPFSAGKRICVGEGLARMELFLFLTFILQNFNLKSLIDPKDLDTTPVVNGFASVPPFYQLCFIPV
P-gp, sequence (P08183 whole entry): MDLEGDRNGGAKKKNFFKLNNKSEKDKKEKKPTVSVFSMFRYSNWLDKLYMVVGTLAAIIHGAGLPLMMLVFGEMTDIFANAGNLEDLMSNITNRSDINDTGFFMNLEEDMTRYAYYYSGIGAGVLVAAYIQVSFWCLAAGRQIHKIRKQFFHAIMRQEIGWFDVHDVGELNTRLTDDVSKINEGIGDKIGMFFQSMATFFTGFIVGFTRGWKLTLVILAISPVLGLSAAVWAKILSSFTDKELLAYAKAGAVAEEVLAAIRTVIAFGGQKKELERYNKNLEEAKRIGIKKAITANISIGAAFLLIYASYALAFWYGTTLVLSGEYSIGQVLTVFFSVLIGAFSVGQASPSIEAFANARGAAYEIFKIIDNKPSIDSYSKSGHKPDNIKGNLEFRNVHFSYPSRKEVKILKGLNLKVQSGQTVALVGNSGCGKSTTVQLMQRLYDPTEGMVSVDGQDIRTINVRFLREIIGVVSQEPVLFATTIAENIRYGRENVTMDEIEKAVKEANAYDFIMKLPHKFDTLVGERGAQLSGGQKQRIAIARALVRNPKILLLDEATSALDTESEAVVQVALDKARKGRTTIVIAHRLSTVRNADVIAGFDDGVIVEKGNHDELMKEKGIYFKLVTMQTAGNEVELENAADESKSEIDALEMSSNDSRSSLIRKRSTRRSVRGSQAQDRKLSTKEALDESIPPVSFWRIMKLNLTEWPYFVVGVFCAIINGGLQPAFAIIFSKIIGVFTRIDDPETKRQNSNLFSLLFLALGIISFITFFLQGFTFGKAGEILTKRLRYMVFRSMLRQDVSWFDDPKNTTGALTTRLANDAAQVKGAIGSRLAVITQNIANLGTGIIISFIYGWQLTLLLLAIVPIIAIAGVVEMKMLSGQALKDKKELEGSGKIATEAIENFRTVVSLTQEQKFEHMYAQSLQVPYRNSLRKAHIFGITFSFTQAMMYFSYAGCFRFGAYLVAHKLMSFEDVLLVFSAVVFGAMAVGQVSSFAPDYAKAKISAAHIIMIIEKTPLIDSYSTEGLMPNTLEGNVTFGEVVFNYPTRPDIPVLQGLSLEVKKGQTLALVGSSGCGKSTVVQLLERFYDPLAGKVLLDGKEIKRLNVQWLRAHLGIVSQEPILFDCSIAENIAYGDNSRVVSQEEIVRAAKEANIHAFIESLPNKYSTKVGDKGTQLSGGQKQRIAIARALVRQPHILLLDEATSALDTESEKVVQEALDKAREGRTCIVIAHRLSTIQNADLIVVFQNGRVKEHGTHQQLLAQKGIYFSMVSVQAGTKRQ

For `COc1cccc(-c2c(C)n(Cc3c(F)cccc3C(F)(F)F)c(=O)n(C[C@H](NCCCC(=O)O)c3ccccc3)c2=O)c1F` [elagolix, 4-((R)-2-[5-(2-fluoro-3-methoxy-phenyl)-3-(2-fluoro-6-trifluoromethyl-benzyl)-4-methyl-2,6-dioxo-3,6-dihydro-2H-pyrimidin-1-yl]-1-phenyl-ethylamino)-butyric acid], the “elagolix mean concentrations, SLCO1B1 521 C/C genotype compared to SLCO1B1 521T/T genotype” value [1] was “approximately 2 fold”, the “substrate of CYP3A” value [2] was “substrate” and the “substrate of P-gp” value [3] was “substrate”. The “inducer of CYP3A4 / cytochrome P450 (CYP) 3A” value [4] was “weak to moderate inducer”, the “dose with increased post implantation losses, as multiple of the MRHD based on AUC” value ([5]; pregnant rats, mid dose group) was 12 times the MRHD and the maternal deaths ([5]; pregnant rats, oral gavage 300, 600 and 1200 mg/kg/day) was “six deaths”. The “fetal malformations / structural abnormalities” value ([5]; rat, any dose level tested) was “no structural abnormalities; also recorded: No fetal malformations”, the “inhibitor of CYP2C19” value [6] was “weak inhibitor” and the “substrate of OATP1B1” value [7] was “substrate”. For the same compound, the “CYP2B6 induction in the healthy volunteer study” value ([8]; elagolix 300 mg BID for 10 days) was “did not induce CYP2B6”, the “tolerability of co-administration of elagolix and bupropion” value ([8]; healthy premenopausal female subjects) was “generally well tolerated” and the half-life [9] was 4 to 6 h. For the same compound, the “post-weaning growth, development and behavioral endpoints” value [10] was “unaffected”, the “maternal plasma concentration relative to maximal elagolix concentration (Cmax) in humans at the MRHD” value ([10]; 100 mg/kg/day) was 0.04 fold and the “litter findings at the highest dose” value ([10]; 300 mg/kg/day) was “two dams had total litter loss, and one failed to deliver”. For the same compound, the “maternal plasma concentration relative to maximal elagolix concentration (Cmax) in humans at the MRHD” value ([10]; 300 mg/kg/day) was 0.1 fold, the “pup birth weights and body weight gains” value ([10]; 300 mg/kg/day, pre-weaning period) was “lower birth weights and lower body weight gains” and the “pup survival from birth to postnatal day 4” value ([10]; highest dose) was “decreased”.
